Where two headings read alike, the source gives them in different places.
Assays:
[1] = system: ERK phosphorylation in KYSE-520 cells; assay: Phospho-ERK cellular assay; format: cell-based; settings: KYSE-520 cells, 2 h at 37° C., phospho-ERK1/2 (Thr202/Tyr204) TR-FRET, read-out: PERK IC50
In short: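 TR-FRET read-out of ERK1/2 Thr202/Tyr204 phosphorylation was taken after overnight antibody incubation at room temperature. Before that, KYSE-520 cells were treated 2 h at 37 °C with compound dilutions and lysed 30 min. Percent inhibition relative to vehicle and cell-free wells was fitted four-parametrically to give IC50.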

[2] = molecular target: SHP-2 enzyme (Met1-Leu525) (Homo sapiens (Human), UniProt Q06124); assay: SHP2 inhibition enzymatic assay; format: biochemical; settings: 0.5 nM SHP-2 activated by 500 nM IRS1 peptide, 75 μM DiFMUP substrate; read-out: SHP2wt-IC50
Chain of SHP-2 enzyme (Met1-Leu525) (Q06124 1-525): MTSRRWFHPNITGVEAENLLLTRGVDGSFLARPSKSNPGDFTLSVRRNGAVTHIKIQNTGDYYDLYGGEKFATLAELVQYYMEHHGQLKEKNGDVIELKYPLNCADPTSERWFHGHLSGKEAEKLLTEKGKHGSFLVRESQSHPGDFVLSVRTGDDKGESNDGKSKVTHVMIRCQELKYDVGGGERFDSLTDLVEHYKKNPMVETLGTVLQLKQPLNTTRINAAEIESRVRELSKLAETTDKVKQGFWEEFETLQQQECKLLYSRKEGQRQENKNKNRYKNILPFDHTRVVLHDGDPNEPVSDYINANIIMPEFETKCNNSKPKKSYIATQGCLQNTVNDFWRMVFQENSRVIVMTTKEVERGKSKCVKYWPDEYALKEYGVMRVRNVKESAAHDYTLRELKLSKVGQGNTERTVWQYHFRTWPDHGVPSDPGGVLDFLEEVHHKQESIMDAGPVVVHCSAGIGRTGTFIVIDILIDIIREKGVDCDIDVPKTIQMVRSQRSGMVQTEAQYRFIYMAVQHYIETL
In short: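 Compounds were preincubated 30 min with 0.5 nM SHP-2 (Met1-Leu525) plus 500 nM IRS1 activating peptide (pH 7.2 HEPES, 5 mM DTT), then 75 μM DiFMUP substrate reacted 30 min at room temperature. After bpV quench, DiFMUP fluorescence gave % inhibition; four-parameter logistic fit yielded IC50.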

IC50 ([1]; Homo sapiens, KYSE-520, 2 h) [nM] | IC50 [2] [nM] | IC50 [1] [nM] | Compound
< 1000 | < 500 | – | NC[C@]1(c2cccc(F)c2F)[C@@H]2CCN(c3cnc4c(-c5ccc(C(=O)O)c6ncccc56)n[nH]c4n3)C[C@@H]21 [Example 266, 5-(6-((1S,6R,7R)-7-(aminomethyl)-7-(2,3-difluorophenyl)-3-azabicyclo[4.1.0]heptan-3-yl)-1H-pyrazolo[3,4-b]pyrazin-3-yl)quinoline-8-carboxylic acid]
< 1000 | < 500 | – | Cn1ccc2c(-c3n[nH]c4nc(N5CC[C@@H]6[C@H](C5)[C@@]6(CN)c5ccccc5F)cnc34)cccc2c1=O [Example 274, 5-(6-((1S,6R,7R)-7-(aminomethyl)-7-(2-fluorophenyl)-3-azabicyclo[4.1.0]heptan-3-yl)-1H-pyrazolo[3,4-b]pyrazin-3-yl)-2-methylisoquinolin-1(2H)-one]
– | < 500 | < 1000 | Cc1csc([C@@]2(CN)[C@@H]3CN(c4cnc5c(-c6ccn7nccc7c6Cl)n[nH]c5n4)C[C@@H]32)n1 [Example 458]
< 1000 | < 500 | – | Cn1nccc1C1(CN)C2CCN(c3cnc4c(-c5cccc(Cl)c5Cl)n[nH]c4n3)CC21 (centres unmarked) [Example 97, (3-(3-(2,3-dichlorophenyl)-1H-pyrazolo[3,4-b]pyrazin-6-yl)-7-(1-methyl-1H-pyrazol-5-yl)-3-azabicyclo[4.1.0]heptan-7-yl)methanamine]
< 1000 | < 500 | – | NC[C@]1(c2ccccc2F)[C@@H]2CCN(c3cnc4c(-c5cc(F)c6ncccc6c5)n[nH]c4n3)C[C@@H]21 [Example 174, ((1S,6R,7R)-7-(2-fluorophenyl)-3-(3-(8-fluoroquinolin-6-yl)-1H-pyrazolo[3,4-b]pyrazin-6-yl)-3-azabicyclo[4.1.0]heptan-7-yl)methanamine]
< 1000 | < 500 | – | Cc1csc([C@@]2(CN)[C@@H]3CN(c4nc5[nH]cc(-c6ccc7nn(C)cc7c6Cl)c5c(=O)n4C)C[C@@H]32)n1 [Example 473, 2-((1R,5S,6r)-6-(aminomethyl)-6-(4-methylthiazol-2-yl)-3-azabicyclo[3.1.0]hexan-3-yl)-5-(4-chloro-2-methyl-2H-indazol-5-yl)-3-methyl-3,7-dihydro-4H-pyrrolo[2,3-d]pyrimidin-4-one]

Continued, compound first:

Compound | IC50 ([1]; Homo sapiens, KYSE-520, 2 h) [nM] | IC50 [2] [nM] | IC50 [1] [nM]
Cc1csc(C2(CN)C3CCN(c4cnc5c(-c6ccccc6Cl)n[nH]c5n4)CC32)n1 (centres unmarked) [Example 84, (3-(3-(2-chlorophenyl)-1H-pyrazolo[3,4-b]pyrazin-6-yl)-7-(4-methylthiazol-2-yl)-3-azabicyclo[4.1.0]heptan-7-yl)methanamine] | < 1000 | < 500 | –
Cc1csc([C@@]2(CN)[C@@H]3CCN(c4cnc5c(-c6ccn7nccc7c6Cl)n[nH]c5n4)C[C@@H]32)n1 [Example 439, ((1S,6R,7S)-3-(3-(4-chloropyrazolo[1,5-a]pyridin-5-yl)-1H-pyrazolo[3,4-b]pyrazin-6-yl)-7-(4-methylthiazol-2-yl)-3-azabicyclo[4.1.0]heptan-7-yl)methanamine] | < 1000 | < 500 | –
NC[C@]1(c2ccccc2F)[C@@H]2CCN(c3cnc4c(-c5ccc(C(=O)NC6CC6)c6ncccc56)n[nH]c4n3)C[C@@H]21 [Example 279, 5-(6-((1S,6R,7R)-7-(aminomethyl)-7-(2-fluorophenyl)-3-azabicyclo[4.1.0]heptan-3-yl)-1H-pyrazolo[3,4-b]pyrazin-3-yl)-N-cyclopropylquinoline-8-carboxamide] | < 1000 | < 500 | –
NCC1(c2nc(Cl)cs2)C2CCN(c3cnc4c(-c5ccc(F)c6ncccc56)n[nH]c4n3)CC21 (centres unmarked) [Example 446, (7-(4-chlorothiazol-2-yl)-3-(3-(8-fluoroquinolin-5-yl)-1H-pyrazolo[3,4-b]pyrazin-6-yl)-3-azabicyclo[4.1.0]heptan-7-yl)methanamine] | < 1000 | < 500 | –
CC(C)n1ncc2c(Cl)c(-c3n[nH]c4nc(N5CC[C@@H]6[C@H](C5)[C@@]6(CN)c5ccccc5F)cnc34)ccc21 [Example 325, ((1S,6R,7R)-3-(3-(4-chloro-1-isopropyl-1H-indazol-5-yl)-1H-pyrazolo[3,4-b]pyrazin-6-yl)-7-(2-fluorophenyl)-3-azabicyclo[4.1.0]heptan-7-yl)methanamine] | < 1000 | < 500 | –
COc1cccc(-c2n[nH]c3nc(N4CCC5C(C4)C5(CN)c4nc(C)cs4)cnc23)c1Cl (centres unmarked) [Example 87, (3-(3-(2-chloro-3-methoxyphenyl)-1H-pyrazolo[3,4-b]pyrazin-6-yl)-7-(4-methylthiazol-2-yl)-3-azabicyclo[4.1.0]heptan-7-yl)methanamine] | < 1000 | < 500 | –
NC[C@]1(c2ccccc2F)[C@@H]2CCN(c3cnc4c(-c5ccnc6cnccc56)n[nH]c4n3)C[C@@H]21 [Example 155, ((1S,6R,7R)-3-(3-(1,7-naphthyridin-4-yl)-1H-pyrazolo[3,4-b]pyrazin-6-yl)-7-(2-fluorophenyl)-3-azabicyclo[4.1.0]heptan-7-yl)methanamine] | < 1000 | < 500 | –
NC[C@]1(c2ccccc2F)[C@@H]2CCN(c3cnc4c(-c5ccc6nccc(N)c6c5)n[nH]c4n3)C[C@@H]21 [Example 258, 6-(6-((1S,6R,7R)-7-(aminomethyl)-7-(2-fluorophenyl)-3-azabicyclo[4.1.0]heptan-3-yl)-1H-pyrazolo[3,4-b]pyrazin-3-yl)quinolin-4-amine] | > 5000 | < 500 | –
NC[C@]1(c2ccccc2F)[C@@H]2CCN(c3cnc4c(-c5ccc(F)c6ncccc56)c[nH]c4n3)C[C@@H]21 [Example 507, ((1S,6R,7R)-7-(2-fluorophenyl)-3-(7-(8-fluoroquinolin-5-yl)-5H-pyrrolo[2,3-b]pyrazin-3-yl)-3-azabicyclo[4.1.0]heptan-7-yl)methanamine] | < 1000 | < 500 | –
NC[C@]1(c2ccccc2F)[C@@H]2CCN(c3cnc4c(-c5cc6ccccc6c(=O)[nH]5)n[nH]c4n3)C[C@@H]21 [Example 235, 3-(6-((1S,6R,7R)-7-(aminomethyl)-7-(2-fluorophenyl)-3-azabicyclo[4.1.0]heptan-3-yl)-1H-pyrazolo[3,4-b]pyrazin-3-yl)isoquinolin-1(2H)-one] | > 5000 | < 500 | –
Cc1csc(C2(CN)C3CCN(c4cnc5c(-c6cccc7c6OCO7)n[nH]c5n4)CC32)n1 (centres unmarked) [Example 91, (3-(3-(Benzo[d][1,3]dioxol-4-yl)-1H-pyrazolo[3,4-b]pyrazin-6-yl)-7-(4-methylthiazol-2-yl)-3-azabicyclo[4.1.0]heptan-7-yl)methanamine] | < 1000 | < 500 | –
Cn1cc2c(Cl)c(-c3n[nH]c4nc(N5CC[C@@H]6[C@H](C5)[C@@]6(CN)c5ccc(F)cn5)cnc34)ccc2n1 [Example 120, ((1S,6R,7S)-3-(3-(4-chloro-2-methyl-2H-indazol-5-yl)-1H-pyrazolo[3,4-b]pyrazin-6-yl)-7-(5-fluoropyridin-2-yl)-3-azabicyclo[4.1.0]heptan-7-yl)methanamine] | < 1000 | < 500 | –
NC[C@]1(c2ccccc2)[C@@H]2CN(c3cnc4c(-c5cccc(Cl)c5Cl)n[nH]c4n3)C[C@@H]21 [Example 452, ((1R,5S,6s)-3-(3-(2,3-dichlorophenyl)-1H-pyrazolo[3,4-b]pyrazin-6-yl)-6-phenyl-3-azabicyclo[3.1.0]hexan-6-yl)methanamine] | < 1000 | < 500 | –
